{"source": "paper PMC5218480", "about": "(PLoS ONE, 2017)", "system": "MV-4-11 cells", "experiment": "Gene expression microarray analysis (Affymetrix PrimeView) and GSEA", "assay_type": "cell-based, human", "set-up": "RFU PODN (11730768_x_at) / Fold change /veh PODN (11730768_x_at) / RFU LINC00158 (11744669_a_at) / Fold change /veh LINC00158 (11744669_a_at) / RFU DUSP10 (11751237_a_at) / Fold change /veh DUSP10 (11751237_a_at) / RFU ID3 (11757404_x_at) / Fold change /veh ID3 (11757404_x_at) / RFU PLEKHG5 (11737974_s_at) / Fold change /veh PLEKHG5 (11737974_s_at) / RFU LRRC4B (11730491_at) / Fold change /veh LRRC4B (11730491_at) / RFU GIMAP4 (11747438_a_at) / Fold change /veh GIMAP4 (11747438_a_at) / RFU KRT8 (11758183_x_at) / Fold change /veh KRT8 (11758183_x_at) / RFU CNN1 (11734310_a_at) / Fold change /veh CNN1 (11734310_a_at) / RFU VPS37D (11726825_at) / Fold change /veh VPS37D (11726825_at) / RFU C10orf10 (11716522_x_at) / Fold change /veh C10orf10 (11716522_x_at) / RFU KIR2DL2 /// KIR2DL4 /// KIR2DL5A /// KIR2DL5B /// KIR2DS1 /// KIR2DS2 /// KIR2DS3 /// KIR2DS4 /// KIR3DL3 /// KIR3DL3 /// KIR3DS1 (11738374_at) / Fold change /veh KIR2DL2 /// KIR2DL4 /// KIR2DL5A /// KIR2DL5B /// KIR2DS1 /// KIR2DS2 /// KIR2DS3 /// KIR2DS4 /// KIR3DL3 /// KIR3DL3 /// KIR3DS1 (11738374_at) / RFU C1QL1 (11718748_at) / Fold change /veh C1QL1 (11718748_at) / RFU TMPRSS4 (11747572_a_at) / Fold change /veh TMPRSS4 (11747572_a_at) / RFU HAMP (11756126_x_at) / Fold change /veh HAMP (11756126_x_at) / RFU RNFT2 (11725882_a_at) / Fold change /veh RNFT2 (11725882_a_at) / RFU NR4A2 (11747474_a_at) / Fold change /veh NR4A2 (11747474_a_at) / RFU ABCC12 (11746883_a_at) / Fold change /veh ABCC12 (11746883_a_at) / RFU TMEM136 (11760407_x_at) / Fold change /veh TMEM136 (11760407_x_at) / RFU CLDN22 /// WWC2 (11732394_at) / Fold change /veh CLDN22 /// WWC2 (11732394_at) / RFU HLA-DPB1 (11760878_x_at) / Fold change /veh HLA-DPB1 (11760878_x_at) / RFU SPINT1 (11716480_a_at) / Fold change /veh SPINT1 (11716480_a_at) / RFU GAP43 (11754022_s_at) / Fold change /veh GAP43 (11754022_s_at) / RFU A4GNT (11735810_at) / Fold change /veh A4GNT (11735810_at) / RFU PRB3 (11715151_x_at) / Fold change /veh PRB3 (11715151_x_at) / RFU TUBB4B (11761932_at) / Fold change /veh TUBB4B (11761932_at) / RFU CAPN14 (11732068_a_at) / Fold change /veh CAPN14 (11732068_a_at) / RFU TMCC2 (11721928_a_at) / Fold change /veh TMCC2 (11721928_a_at) / RFU IRGQ (11745062_a_at) / Fold change /veh IRGQ (11745062_a_at) / RFU FAM174B (11720279_a_at) / Fold change /veh FAM174B (11720279_a_at) / RFU TMPRSS4 (11748680_a_at) / Fold change /veh TMPRSS4 (11748680_a_at) / RFU FAM212B (11763350_a_at) / Fold change /veh FAM212B (11763350_a_at) / RFU PLEKHG5 (11743358_a_at) / Fold change /veh PLEKHG5 (11743358_a_at) / RFU ZSCAN30 (11745921_a_at) / Fold change /veh ZSCAN30 (11745921_a_at) / RFU CMKLR1 (11741424_a_at) / Fold change /veh CMKLR1 (11741424_a_at) / RFU LOC101060620 /// MAPK8IP1 (11723275_at) / Fold change /veh LOC101060620 /// MAPK8IP1 (11723275_at) / RFU SPTSSB (11747773_x_at) / Fold change /veh SPTSSB (11747773_x_at) / RFU PRSS12 (11739890_at) / Fold change /veh PRSS12 (11739890_at) / RFU BIN1 (11741810_x_at) / Fold change /veh BIN1 (11741810_x_at) / RFU WNT11 (11732464_a_at) / Fold change /veh WNT11 (11732464_a_at) / RFU C10orf10 (11716521_a_at) / Fold change /veh C10orf10 (11716521_a_at) / RFU C5orf56 (11738089_at) / Fold change /veh C5orf56 (11738089_at) / RFU CYB561 (11721691_x_at) / Fold change /veh CYB561 (11721691_x_at) / RFU ANKRD19P (11752326_a_at) / Fold change /veh ANKRD19P (11752326_a_at) / RFU OR2T12 /// OR2T33 /// OR2T8 (11738714_s_at) / Fold change /veh OR2T12 /// OR2T33 /// OR2T8 (11738714_s_at) / RFU VCAN (11748164_a_at) / Fold change /veh VCAN (11748164_a_at) / RFU JSRP1 (11732532_at) / Fold change /veh JSRP1 (11732532_at) / RFU KRTAP10-11 (11738290_x_at) / Fold change /veh KRTAP10-11 (11738290_x_at) / RFU MYO3A (11730013_a_at) / Fold change /veh MYO3A (11730013_a_at) / RFU EBF3 (11725865_a_at) / Fold change /veh EBF3 (11725865_a_at) / RFU CAMK2N1 (11719241_x_at) / Fold change /veh CAMK2N1 (11719241_x_at) / RFU C5orf56 (11738088_a_at) / Fold change /veh C5orf56 (11738088_a_at) / RFU OLFML3 (11715873_a_at) / Fold change /veh OLFML3 (11715873_a_at) / RFU LOC100653217 /// NTM (11731650_a_at) / Fold change /veh LOC100653217 /// NTM (11731650_a_at) / RFU MAPK11 (11762145_a_at) / Fold change /veh MAPK11 (11762145_a_at) / RFU FIZ1 (11724087_x_at) / Fold change /veh FIZ1 (11724087_x_at) / RFU OASL (11726364_x_at) / Fold change /veh OASL (11726364_x_at) / RFU SOX15 (11748057_x_at) / Fold change /veh SOX15 (11748057_x_at) / RFU CD79A (11719716_a_at) / Fold change /veh CD79A (11719716_a_at) / RFU HIST1H1D (11736915_at) / Fold change /veh HIST1H1D (11736915_at) / RFU CASKIN2 (11723855_a_at) / Fold change /veh CASKIN2 (11723855_a_at) / RFU LOC730098 (11760151_x_at) / Fold change /veh LOC730098 (11760151_x_at) / RFU OR4N2 (11742367_at) / Fold change /veh OR4N2 (11742367_at) / RFU PRRT2 (11749266_a_at) / Fold change /veh PRRT2 (11749266_a_at) / RFU SNX32 (11753110_a_at) / Fold change /veh SNX32 (11753110_a_at) / RFU CDHR5 (11726645_a_at) / Fold change /veh CDHR5 (11726645_a_at) / RFU RCAN1 (11760418_a_at) / Fold change /veh RCAN1 (11760418_a_at) / RFU FAM167A (11723789_a_at) / Fold change /veh FAM167A (11723789_a_at) / RFU FAM26E (11764081_at) / Fold change /veh FAM26E (11764081_at) / RFU ISYNA1 (11749810_s_at) / Fold change /veh ISYNA1 (11749810_s_at) / RFU ACY1 (11761880_at) / Fold change /veh ACY1 (11761880_at) / RFU 11764098_at / Fold change /veh 11764098_at / RFU SAMD14 (11745864_x_at) / Fold change /veh SAMD14 (11745864_x_at) / RFU NPB (11741838_a_at) / Fold change /veh NPB (11741838_a_at) / RFU TMPRSS6 (11731388_a_at) / Fold change /veh TMPRSS6 (11731388_a_at) / RFU KRTAP10-2 (11738614_at) / Fold change /veh KRTAP10-2 (11738614_at) / RFU ARHGAP8 /// PRR5-ARHGAP8 (11727945_x_at) / Fold change /veh ARHGAP8 /// PRR5-ARHGAP8 (11727945_x_at) / RFU KRTAP5-7 /// NADSYN1 (11734609_at) / Fold change /veh KRTAP5-7 /// NADSYN1 (11734609_at) / RFU RASL12 (11751679_a_at) / Fold change /veh RASL12 (11751679_a_at) / RFU CDKN2B (11736163_a_at) / Fold change /veh CDKN2B (11736163_a_at) / RFU PRF1 (11729649_at) / Fold change /veh PRF1 (11729649_at) / RFU, ZNF638 /// ZNF638-IT1 / Fold change vs veh, ZNF638 /// ZNF638-IT1 / RFU, PANK3 / Fold change vs veh, PANK3 / RFU, SH3YL1 / Fold change vs veh, SH3YL1 / RFU, ZEB2 / Fold change vs veh, ZEB2 / RFU, NRIP1 / Fold change vs veh, NRIP1 / RFU, PTTG1IP / Fold change vs veh, PTTG1IP / RFU, CAPN2 / Fold change vs veh, CAPN2 / RFU, MED14 / Fold change vs veh, MED14 / RFU, SNORA58 / Fold change vs veh, SNORA58 / RFU, C1orf63 / Fold change vs veh, C1orf63 / RFU, LRRFIP1 / Fold change vs veh, LRRFIP1 / RFU, NDUFAF7 / Fold change vs veh, NDUFAF7 / RFU, SLC12A2 / Fold change vs veh, SLC12A2 / RFU, IBTK / Fold change vs veh, IBTK / RFU, ESF1 / Fold change vs veh, ESF1 / Fold change vs veh, TMEM50B / RFU, TAOK1 / Fold change vs veh, TAOK1 / RFU, ACBD3 / Fold change vs veh, ACBD3 / RFU, TMA16 / Fold change vs veh, TMA16 / RFU, RWDD3 / Fold change vs veh, RWDD3 / RFU, BCAT1 / Fold change vs veh, BCAT1 / RFU, EDEM3 / Fold change vs veh, EDEM3 / RFU, TMEM33 / Fold change vs veh, TMEM33 / RFU, WDR75 / Fold change vs veh, WDR75 / RFU, AHCTF1 / Fold change vs veh, AHCTF1 / RFU, TFRC / Fold change vs veh, TFRC / RFU, ZDHHC17 / Fold change vs veh, ZDHHC17 / RFU, NOM1 / Fold change vs veh, NOM1 / RFU, ARL8B / Fold change vs veh, ARL8B / RFU, ZBTB11 / Fold change vs veh, ZBTB11 / RFU, TAMM41 / Fold change vs veh, TAMM41 / RFU, KIAA1704 /// LOC100996395 / Fold change vs veh, KIAA1704 /// LOC100996395 / RFU, ING1 / Fold change vs veh, ING1 / RFU, TRMT61B / Fold change vs veh, TRMT61B / RFU, FUBP3 / Fold change vs veh, FUBP3 / RFU, TP53 / Fold change vs veh, TP53 / RFU, TNKS2 / Fold change vs veh, TNKS2 / RFU, ZFP14 / Fold change vs veh, ZFP14 / RFU, ACTR2 / Fold change vs veh, ACTR2 / RFU, PPP3R1 / Fold change vs veh, PPP3R1 / RFU, PIK3R1 / Fold change vs veh, PIK3R1 / RFU, HNRNPA1 / Fold change vs veh, HNRNPA1 / RFU, RNF170 / Fold change vs veh, RNF170 / RFU, ZNF28 / Fold change vs veh, ZNF28 / RFU, RNGTT / Fold change vs veh, RNGTT / RFU, OGT / Fold change vs veh, OGT / RFU, BRD1 / Fold change vs veh, BRD1 / RFU, MARS / Fold change vs veh, MARS / RFU, ZNF655 / Fold change vs veh, ZNF655 / RFU, FAHD1 / Fold change vs veh, FAHD1 / RFU, BDP1 / Fold change vs veh, BDP1 / RFU, LRRCC1 / Fold change vs veh, LRRCC1 / RFU, ARID1A / Fold change vs veh, ARID1A / RFU, ZNF146 / Fold change vs veh, ZNF146 / RFU, ZNF330 / Fold change vs veh, ZNF330 / RFU, GPN3 / Fold change vs veh, GPN3 / RFU, C9orf123 / Fold change vs veh, C9orf123 / RFU, N4BP2L2 / Fold change vs veh, N4BP2L2 / RFU, ARFIP1 / Fold change vs veh, ARFIP1 / RFU, FAM179B / Fold change vs veh, FAM179B / RFU, BCL10 / Fold change vs veh, BCL10 / RFU, UHRF1BP1L / Fold change vs veh, UHRF1BP1L / RFU, BET1 / Fold change vs veh, BET1 / RFU, CNOT2 / Fold change vs veh, CNOT2 / RFU, ZNF268 / Fold change vs veh, ZNF268 / Fold change vs veh, ZNF507 / RFU, DGCR2 / Fold change vs veh, DGCR2 / RFU, WDSUB1 / Fold change vs veh, WDSUB1 / Fold change vs veh, HSP90B1 /// MIR3652 / RFU, ADSS / Fold change vs veh, ADSS / RFU, GK / Fold change vs veh, GK / RFU, ZNF148 / Fold change vs veh, ZNF148 / RFU, TAF9 / Fold change vs veh, TAF9 / RFU, SLC1A5 / Fold change vs veh, SLC1A5 / RFU, SLMO2 / Fold change vs veh, SLMO2 / RFU, ABCC4 / Fold change vs veh, ABCC4 / RFU, LOC101060439 /// RAP1B / Fold change vs veh, LOC101060439 /// RAP1B / RFU, RFX7 / Fold change vs veh, RFX7 / RFU, GTPBP10 / Fold change vs veh, GTPBP10 / RFU, CNEP1R1 / Fold change vs veh, CNEP1R1 / RFU, BIVM-ERCC5 /// ERCC5 / Fold change vs veh, BIVM-ERCC5 /// ERCC5 / RFU, ILF3 / Fold change vs veh, ILF3 / RFU 11762660_at / Fold change /veh 11762660_at / RFU VCAN (11757783_s_at) / Fold change /veh VCAN (11757783_s_at) / RFU DDX43 (11728927_at) / Fold change /veh DDX43 (11728927_at) / RFU KRT8 (11758188_x_at) / Fold change /veh KRT8 (11758188_x_at) / RFU NKD1 (11759106_at) / Fold change /veh NKD1 (11759106_at) / RFU SRD5A1 (11742802_a_at) / Fold change /veh SRD5A1 (11742802_a_at) / RFU TPSAB1 /// TPSB2 (11721975_s_at) / Fold change /veh TPSAB1 /// TPSB2 (11721975_s_at) / RFU GSTM3 (11746129_a_at) / Fold change /veh GSTM3 (11746129_a_at) / RFU IL23R (11737362_x_at) / Fold change /veh IL23R (11737362_x_at) / RFU TMEM51 (11727254_a_at) / Fold change /veh TMEM51 (11727254_a_at) / RFU PIWIL2 (11732686_x_at) / Fold change /veh PIWIL2 (11732686_x_at) / RFU ORM1 (11744905_x_at) / Fold change /veh ORM1 (11744905_x_at) / RFU CCDC152 (11743942_at) / Fold change /veh CCDC152 (11743942_at) / RFU ECM1 (11717891_a_at) / Fold change /veh ECM1 (11717891_a_at) / RFU IL23R (11748794_a_at) / Fold change /veh IL23R (11748794_a_at) / RFU TNFAIP8L3 (11732012_x_at) / Fold change /veh TNFAIP8L3 (11732012_x_at) / RFU MBOAT4 (11741988_at) / Fold change /veh MBOAT4 (11741988_at) / RFU 11764193_at / Fold change /veh 11764193_at / RFU TMEM53 (11763286_at) / Fold change /veh TMEM53 (11763286_at) / RFU MAGEB2 (11727129_at) / Fold change /veh MAGEB2 (11727129_at) / RFU TMEM200A (11744735_a_at) / Fold change /veh TMEM200A (11744735_a_at) / RFU CCDC152 (11751479_a_at) / Fold change /veh CCDC152 (11751479_a_at) / RFU FAM211A (11726209_a_at) / Fold change /veh FAM211A (11726209_a_at) / RFU RGS16 (11746705_a_at) / Fold change /veh RGS16 (11746705_a_at) / RFU VCAN (11755009_s_at) / Fold change /veh VCAN (11755009_s_at) / RFU RHOB (11743442_s_at) / Fold change /veh RHOB (11743442_s_at) / RFU RGS16 (11720943_a_at) / Fold change /veh RGS16 (11720943_a_at) / RFU RGS16 (11720944_at) / Fold change /veh RGS16 (11720944_at) / RFU, VPS4B / Fold change vs veh, VPS4B / RFU, CREB1 / Fold change vs veh, CREB1 / RFU, DNAJC13 / Fold change vs veh, DNAJC13 / RFU, GNAQ / Fold change vs veh, GNAQ / RFU, CDK5R1 / Fold change vs veh, CDK5R1 / RFU, ZRANB3 / Fold change vs veh, ZRANB3 / RFU, CUL4A / Fold change vs veh, CUL4A / RFU, CCNY / Fold change vs veh, CCNY / RFU, UFL1 / Fold change vs veh, UFL1 / RFU, COG3 / Fold change vs veh, COG3 / RFU, DIAPH2 / Fold change vs veh, DIAPH2 / RFU, SKA2 / Fold change vs veh, SKA2 / RFU, AFF3 / Fold change vs veh, AFF3 / RFU, LMF1 / Fold change vs veh, LMF1 / RFU, IPO11 / Fold change vs veh, IPO11 / RFU, DFFB / Fold change vs veh, DFFB / RFU, FOXP1 / Fold change vs veh, FOXP1 / RFU, CARD8 / Fold change vs veh, CARD8 / RFU, STRN3 / Fold change vs veh, STRN3 / RFU, ADK / Fold change vs veh, ADK / RFU, RASSF2 / Fold change vs veh, RASSF2 / RFU, WIPF1 / Fold change vs veh, WIPF1 / RFU, LARP1B / Fold change vs veh, LARP1B / RFU, RASA1 / Fold change vs veh, RASA1 / RFU, RB1 / Fold change vs veh, RB1 / RFU, PPFIA1 / Fold change vs veh, PPFIA1 / RFU, MAT2A / Fold change vs veh, MAT2A / RFU, CCT5 / Fold change vs veh, CCT5 / RFU, WDR92 / Fold change vs veh, WDR92 / RFU, CUX1 / Fold change vs veh, CUX1 / RFU, TTC7A / Fold change vs veh, TTC7A / RFU, TMEM135 / Fold change vs veh, TMEM135 / RFU, DEPTOR / Fold change vs veh, DEPTOR / RFU, CPM / Fold change vs veh, CPM / RFU, DNAJB6 / Fold change vs veh, DNAJB6 / RFU, CACNA2D3 / Fold change vs veh, CACNA2D3 / RFU, DTX4 / Fold change vs veh, DTX4 / RFU, TFCP2 / Fold change vs veh, TFCP2 / RFU, GMCL1 /// GMCL1P1 / Fold change vs veh, GMCL1 /// GMCL1P1 / RFU, AEBP2 / Fold change vs veh, AEBP2 / RFU, SNHG1 /// SNORD22 /// SNORD25 /// SNORD26 /// SNORD27 /// SNORD28 /// SNORD29 /// SNORD31 / Fold change vs veh, SNHG1 /// SNORD22 /// SNORD25 /// SNORD26 /// SNORD27 /// SNORD28 /// SNORD29 /// SNORD31 / Fold change (Aza/veh), C12orf56 (ProbeSet 11735607_a_at) / Fold change (ACY-1035/veh), C12orf56 (ProbeSet 11735607_a_at) / Fold change (Aza/veh), FGFR1OP (ProbeSet 11751329_s_at) / Fold change (ACY-1035/veh), FGFR1OP (ProbeSet 11751329_s_at) / Fold change (Aza/veh), VPS36 (ProbeSet 11739960_a_at) / Fold change (ACY-1035/veh), VPS36 (ProbeSet 11739960_a_at) / RFU SYPL1 (11715823_x_at) / Fold change /veh SYPL1 (11715823_x_at) / RFU IGFBP7 (11715501_s_at) / Fold change /veh IGFBP7 (11715501_s_at) / RFU REEP3 (11722064_at) / Fold change /veh REEP3 (11722064_at) / RFU IGLL1 (11728026_x_at) / Fold change /veh IGLL1 (11728026_x_at): dose or concentration left out as unconfirmed", "details": "ProbeSet 11729173_a_at; LIST D"}
{"smiles": "Nc1ncn([C@@H]2O[C@H](CO)[C@@H](O)[C@H]2O)c(=O)n1", "note": "[azacitidine]", "values": [{"measurement": "Fold change vs veh, SKA2", "value": 0.81}]}
